2 molecules from US20220281899A1, “COMPOUND AND FLUORESCENTLY LABELED BIOLOGICAL SUBSTANCE USING THE SAME” (FUJIFILM Corporation, priority 2019, published 2022) can be followed below.

Type in all cases: physicochemical
Data set [1] in a line: Evaluation of light resistance in aqueous solution (xenon lamp exposure, absorbance decrease). Conditions: compound; PBS pH 7.4; xenon lamp 22 mW/cm^2. The procedure: The above compound or labeled antibody (hereinafter, referred to as a sample) was dissolved in PBS having a pH of 7.4 so that the absorbance at the absorption wavelength peak was 0.095 to 0.105. In a state of being exposed to light using a merry-go-round type light irradiator, the obtained solution was subjected to the temporal measurement of the absorbance of the absorption wavelength peak of the sample with a spectroscope (manufactured by Agilent Technologies, Inc., product name: Agilent 8453).
For the light exposure using the merry-go-round type light irradiator, a xenon lamp UXL-500D-O (product name) manufactured by Ushio, Inc. was used, and an HA-50 filter and a Y44 filter manufactured by HOYA were used as sharp cut filters (both are product names), where the light exposure intensity was 22 mW/cm^2 (in terms of 500 nm conversion).
The absorbance at the absorption peak wavelength before light exposure was set to 100% and the light exposure time until the absorbance at this absorption peak wavelength decreases by 50% (the absorbance at the absorption peak wavelength reaches 50%) was measured. The results were evaluated based on the following evaluation standards. A high evaluation rank is highly preferable since stability is kept for a long time.
B: 60 hours or more and less than 80 hours
C: 40 hours or more and less than 60 hours
D: 20 hours or more and less than 40 hours […]

Data set [2] can be described thus: Evaluation of fluorescence quantum yield (PBS solution, pH 7.4). Conditions: compound. The procedure:
A PBS solution (pH 7.4) of the above compound was evaluated according to the method described in the following reference document.
“A Guide to Recording Fluorescence Quantum Yields” (a HORIBA Scientific document, available from https://www.horiba.com/fileadmin/uploads/Scientific/Documents/Fluorescence/quantumyields trad.pdf)
In the present test, it is preferable that the fluorescence quantum yield satisfies the evaluation rank “B” or higher from the viewpoint of practicality as the fluorescent compound.
B: 0.7 or more and less than 0.9
C: 0.5 or more and less than 0.7
D: 0.3 or more and less than 0.5
F: not evaluable due to low water solubility
(§1) The water solubility and the fluorescence quantum of the labeled antibody were evaluated according to the same methods as those described in Example 1 except that in the evaluation of the water solubility and the fluorescence quantum yield in Example 1, the sample for measurement was changed from the compound to the labeled antibody.

The nature of data set [3]: Evaluation of water solubility (PBS pH 7.4, UHPLC concentration of filtrate). Conditions: compound; PBS pH 7.4, 1% DMSO, 200 μM if completely dissolved. The procedure:
5 μL of a DMSO solution having a concentration of 20 mM of the above compound (hereinafter, referred to as a sample) and 495 μL of PBS having a pH of 7.4 were added and mixed in a 1.5 mL Eppendorf tube and stirred with a multi-shaker MS300 (product name, AS ONE Corporation) at 2,000 rpm for 30 minutes. The obtained mixed solution was allowed to be left for 60 minutes with light shielding and then subjected to centrifugal precipitation (12,000 rpm, 5 minutes). For the filtrate filtered using a filter having a pore diameter of 0.20 μm, the sample concentration was measured with Nexera UHPLC [product name, manufactured by Shimadzu Corporation, column: Shim-pack XR-ODSII] (the sample concentration is 200 μM in a case where the sample is completely dissolved) and evaluated based on the following evaluation standards.
In the present test, it is determined that a compound has passed the evaluation of the water solubility in a case where the compound has a rank “B” or higher.
B: 10 μM or more and less than 100 μM
C: 1 μM or more and less than 10 μM […]
as §1

Consider `CC1=CC(C)=[N+]2C1=C(C)c1c(C)cc(C)n1[B-]2(F)F` [BODIPY493/503], for which the “Light resistance (light exposure time until absorbance at absorption peak reaches 50%)” value in data set [1] was “F (less than 10 hours)”. The Fluorescence quantum yield entry in data set [2] was “A (0.9 or more)”. Besides, in data set [3], the Water solubility result was “C (1 μM or more and less than 10 μM)”.

For `Cc1cc(C)n2c1C=C1C=CC(CCC(=O)O)=[N+]1[B-]2(F)F` [BODIPY FL], the “Light resistance (light exposure time until absorbance at absorption peak reaches 50%)” value in data set [1] is “F (less than 10 hours)”. The Fluorescence quantum yield entry in data set [2] is “B (0.7 or more and less than 0.9)”. In addition, the Water solubility result in data set [3] is “C (1 μM or more and less than 10 μM)”.
